Experimental data reported in publication PMC9098913, “In vitro reconstitution of Escherichia coli divisome activation” (Nature Communications, 2022).
Where “and” joins values, the source holds several entries; their conditions need not be identical. Identical values can stand only once. Like-named read-outs stand apart in the source and are kept apart here.

Columns and labels:
FtsA self-interaction = assay: FRET (acceptor photobleaching) self-interaction of FtsA on supported lipid bilayers; assay type: binding, E. coli
Source text: To directly measure FtsA self-interaction in our fluorescence microscopy experiments, we established a FRET (Förster resonance energy transfer)-based assay using FtsA labelled with either Cy5 (acceptor) or Cy3 (donor). […] We then decided to use this approach to measure the degree of FtsA self-interaction on supported lipid membranes by quantifying the increase in donor fluorescence after photobleaching the acceptor fluorophore[30]–[32] (Fig. 3c–e and Fig. S3d). […] As a negative control, we also attached the Hexahistidine-SUMO-tag (His-SUMO) labelled with Cy5 and Cy3 to membranes with an increasing density of Tris-NTA lipids.
Equimolar concentrations of Cy3- and Cy5-labelled FtsA, supplemented with 20% unlabelled FtsA were used to study FRET and FRAP. Five pre-bleach frames were acquired, followed by acceptor photobleaching of a rectangular ROI with 40% 641 nm laser power and a dwell size of 1 µs/pixel, 75% overlapping lines. The recovery of the signal or the increase in donor intensity were measured with either two frames or one frame per second.
Bleaching the acceptor dye leads to an increase in the donor intensity, which can be used to quantify the Foerster Resonance energy transfer (FRET)[48]. FRET efficiency was quantified with E%=Ipost/Ipost+Ipre⋅100 , where Ipost is the intensity of the […] and Ipre is the […]. […] To extract the contribution of both processes, we adjusted a routine recently published by Gerganova et al.[33]. In short, the code provides the contribution of both modes of recovery by analysing the shape of the fluorescence recovery profile. […] Contribution of diffusion leads to a change of the slope of the outer borders of the bleached region (S4h right). Thus, by measuring the change of the slope of the border recovery, diffusion and simple on/off binding can be distinguished. We developed “FRAPdiff”, a graphical user interface, which uses the original fit routine by David Rutkowski. It can be used directly on.tiff movies with annotated bleach regions as ImageJ ROIs. In addition, we added optional bleach correction, user selectable projection axis (x or y), and optional mirroring of the recovery profiles, if bleaching was not symmetric. The original fit routine for estimating the recovery and diffusion dynamics can be found at https://github.com/davidmrutkowski/1DReflectingDiffusion. FRAPdiff is available at 10.5281/zenodo.6400639[49] under the GPLv3 open-source license.

[1] = Fig. S4b, 0.10 % Tris NTA
Protocol: To study colocalization of His-tagged variants of FtsA, 0.5–1 µM of Cy5 labelled His-tagged FtsAs were added to the chamber, incubated for 20 min and washed 6x with reaction buffer. […] To control the density of membrane-bound FtsA, SUVs without and with Tris-NTA lipids were mixed to obtain the respective Tris-NTA concentrations. To perform FRET/FRAP experiments, equimolar concentrations of Cy3 and Cy5 labelled His-tagged FtsAs (total 0.5–1 µM) or His-SUMO-Cys were added to a chamber and treated as above. […] FRAP experiments were performed as described before.
To calculate the theoretical spacing of His-tagged FtsAs or the His-SUMO control, we consulted a previous QCM-D study using Tris-NTA lipids and a His-tagged version of ZipA[50]. The spacing in nm^2 was calculated by y=2/3⋅1/6.022⋅x⋅0.001 , where x is the protein density in pMol cm^−2 which can be estimated from the Tris-NTA lipid density.
To estimate the theoretical maximum packing of membranes containing Tris-NTA lipids, we can assume the area of a single FtsA molecule to be ~30 nm^2 and the area of a single lipid molecule to be 0.5 nm^2. […] For the FRET control experiments with His-SUMO-Cys, we estimate a four times smaller area for His6-SUMO Cys (~7 nm^2) and thus increase the maximum Tris-NTA density to 5%.

FtsZ = tested on: FtsZ
Protocol: Additionally, the reaction chamber contained 4 mM ATP and 4 mM GTP, as well as a scavenging system to minimize photobleaching effects: 30 mM d-glucose, 0.050 mg ml^−1 Glucose Oxidase, 0.016 mg ml^−1 Catalase, 1 mM DTT and 1 mM Trolox. Prior addition of all components a corresponding buffer volume was removed from the chamber to obtain a total reaction volume of 100 µl. The dynamic protein pattern was monitored by time-lapse TIRF microscopy at one frame per 2 s and 50 ms exposure time.

For “FtsA WT: wild-type E. coli actin-homologue FtsA, membrane anchor of FtsZ”, the “FRET efficiency, mean” value (FtsA self-interaction; 0.1 µM FtsA + FtsN&Z) was 15.28%, the “FRET efficiency, mean” value (FtsA self-interaction; 0.1 µM FtsA + FtsN) was 8.5880% and 8.59% and the “FRET efficiency, mean” value (FtsA self-interaction; 0.1 µM FtsA + FtsZ) was 7.8480% and 7.85%. The “FRET efficiency, mean” value (FtsA self-interaction; 0.1 µM FtsA alone) was 8.1133%, the “FRET efficiency, mean” value (FtsA self-interaction; 0.2 µM FtsA + FtsN&Z) was 17.79% and the “FRET efficiency, mean” value (FtsA self-interaction; 0.2 µM FtsA + FtsN) was 12.6840% and 12.68%. For the same molecule, the “FRET efficiency, mean” value (FtsA self-interaction; 0.2 µM FtsA + FtsZ) was 12.5828% and 12.58%, the “FRET efficiency, mean” value (FtsA self-interaction; 0.2 µM FtsA alone) was 16.69% and the “FRET efficiency, mean” value (FtsA self-interaction; 0.4 µM FtsA + FtsN&Z) was 30.1680% and 30.17%. The “FRET efficiency, mean” value (FtsA self-interaction; 0.4 µM FtsA + FtsN) was 27.2922% and 27.29%, the “FRET efficiency, mean” value (FtsA self-interaction; 0.4 µM FtsA + FtsZ) was 17.7412% and 17.74% and the “FRET efficiency, mean” value (FtsA self-interaction; 0.4 µM FtsA alone) was 22.27%. The FRET efficiency (FtsA self-interaction; 0.4 µM FtsA with FtsNcyto and FtsZ, p-value 0.64) was 30.2 ± 9.6%, the FRET efficiency (FtsA self-interaction; 0.4 µM FtsA, p-value 6.12 × 10^−9) was 22.1 ± 5.7% and the “FRET efficiency, mean” value (FtsA self-interaction; 0.8 µM FtsA + FtsN&Z) was 34.2167% and 34.22%. For the same molecule, the “FRET efficiency, mean” value (FtsA self-interaction; 0.8 µM FtsA + FtsN) was 29.89%, the “FRET efficiency, mean” value (FtsA self-interaction; 0.8 µM FtsA + FtsZ) was 27.1326% and 27.13% and the “FRET efficiency, mean” value (FtsA self-interaction; 0.8 µM FtsA alone) was 31.17%. It also gave an FRET efficiency (FtsA self-interaction; Fig. S3f, 0.2µM FtsA + N/Z, replicate 1) of 17.94%, an FRET efficiency (FtsA self-interaction; Fig. S3f, 0.2µM FtsA + N/Z, replicate 2) of 16.55% and an FRET efficiency (FtsA self-interaction; Fig. S3f, 0.2µM FtsA + N/Z, replicate 3) of 18.88%. It also gave an FRET efficiency (FtsA self-interaction; Fig. S3f, 0.2µM FtsA + N, replicate 1) of 7.76%, an FRET efficiency (FtsA self-interaction; Fig. S3f, 0.2µM FtsA + N, replicate 2) of 9.38% and an FRET efficiency (FtsA self-interaction; Fig. S3f, 0.2µM FtsA + N, replicate 3) of 9.72%. For the same molecule, the FRET efficiency (FtsA self-interaction; Fig. S3f, 0.2µM FtsA + Z, replicate 1) was 9.62%, the FRET efficiency (FtsA self-interaction; Fig. S3f, 0.2µM FtsA + Z, replicate 2) was 10.06% and the FRET efficiency (FtsA self-interaction; Fig. S3f, 0.2µM FtsA + Z, replicate 3) was 7.69%. The FRET efficiency (FtsA self-interaction; Fig. S3f, 0.2µM FtsA, replicate 1) was 12.55%, the FRET efficiency (FtsA self-interaction; Fig. S3f, 0.2µM FtsA, replicate 2) was 13.62% and the FRET efficiency (FtsA self-interaction; Fig. S3f, 0.2µM FtsA, replicate 3) was 23.13%. It also gave an FRET efficiency (FtsA self-interaction; Fig. S3f, 0.4µM FtsA + N/Z, replicate 1) of 16.64%, an FRET efficiency (FtsA self-interaction; Fig. S3f, 0.4µM FtsA + N/Z, replicate 2) of 39.69% and an FRET efficiency (FtsA self-interaction; Fig. S3f, 0.4µM FtsA + N/Z, replicate 3) of 38.87%. The FRET efficiency (FtsA self-interaction; Fig. S3f, 0.4µM FtsA + N, replicate 1) was 18.29%, the FRET efficiency (FtsA self-interaction; Fig. S3f, 0.4µM FtsA + N, replicate 2) was 25.77% and the FRET efficiency (FtsA self-interaction; Fig. S3f, 0.4µM FtsA + N, replicate 3) was 38.25%. The FRET efficiency (FtsA self-interaction; Fig. S3f, 0.4µM FtsA + Z, replicate 1) was 14.31%, the FRET efficiency (FtsA self-interaction; Fig. S3f, 0.4µM FtsA + Z, replicate 2) was 10.18% and the FRET efficiency (FtsA self-interaction; Fig. S3f, 0.4µM FtsA + Z, replicate 3) was 12.8%. It also gave an FRET efficiency (FtsA self-interaction; Fig. S3f, 0.4µM FtsA, replicate 1) of 20.04%, an FRET efficiency (FtsA self-interaction; Fig. S3f, 0.4µM FtsA, replicate 2) of 14.17% and an FRET efficiency (FtsA self-interaction; Fig. S3f, 0.4µM FtsA, replicate 3) of 22.75%. For the same molecule, the FRET efficiency (FtsA self-interaction; Fig. S3n, AMP PNP, 0.10 µM FtsA, replicate 1) was 2.62%, the FRET efficiency (FtsA self-interaction; Fig. S3n, AMP PNP, 0.10 µM FtsA, replicate 2) was -0.01% and the FRET efficiency (FtsA self-interaction; Fig. S3n, AMP PNP, 0.20 µM FtsA, replicate 1) was 5.42%. For the same molecule, the FRET efficiency (FtsA self-interaction; Fig. S3n, AMP PNP, 0.20 µM FtsA, replicate 2) was 10.85%, the FRET efficiency (FtsA self-interaction; Fig. S3n, AMPPNP, 0.10 µM FtsA, summary value) was 1.30% and the FRET efficiency (FtsA self-interaction; Fig. S3n, AMPPNP, 0.20 µM FtsA, summary value) was 8.14%. It also gave an FRET efficiency (FtsA self-interaction; Fig. S3n, AMPPNP, 0.40 µM FtsA, summary value) of 9.64%, an FRET efficiency (FtsA self-interaction; Fig. S3n, AMPPNP, 0.80 µM FtsA, summary value) of 10.07% and an FRET efficiency (FtsA self-interaction; Fig. S3n, ATP, 0.10 µM FtsA, summary value) of 8.36%. It also gave an FRET efficiency (FtsA self-interaction; Fig. S3n, ATP, 0.20 µM FtsA, summary value) of 16.69%, an FRET efficiency (FtsA self-interaction; Fig. S3n, ATP, 0.40 µM FtsA, summary value) of 22.27% and an FRET efficiency (FtsA self-interaction; Fig. S3n, ATP, 0.80 µM FtsA, summary value) of 31.17%. The FRET efficiency (FtsA self-interaction; Fig. S3n, ATPgS, 0.10 µM FtsA, summary value) was 4.97%, the FRET efficiency (FtsA self-interaction; Fig. S3n, ATPgS, 0.20 µM FtsA, summary value) was 9.83% and the FRET efficiency (FtsA self-interaction; Fig. S3n, ATPgS, 0.40 µM FtsA, summary value) was 14.66%. For the same molecule, the FRET efficiency (FtsA self-interaction; Fig. S3n, ATPgS, 0.80 µM FtsA, summary value) was 21.79% and the “effect of FtsNcyto on FRET” value (FtsA self-interaction; presence of FtsNcyto) was “small FRET increase”.

With “FtsA-His6: FtsA WT (1-405) with amphipathic helix replaced by C-terminal His-tag” the “FtsA His6 intensity on Tris NTA SLBs” value ([1]; replicate 1) was 1571.82 a.u, the “FtsA His6 intensity on Tris NTA SLBs” value ([1]; replicate 2) was 1134.07 a.u and the “FtsA His6 intensity on Tris NTA SLBs” value ([1]; replicate 3) was 932.94 a.u.

B1: FtsA R286W (protein)
chain: MIKATDRKLVVGLEIGTAKVAALVGEVLPDGMVNIIGVGSCPSRGMDKGGVNDLESVVKCVQRAIDQAELMADCQISSVYLALSGKHISCQNEIGMVPISEEEVTQEDVENVVHTAKSVRVRDEHRVLHVIPQEYAIDYQEGIKNPVGLSGVRMQAKVHLITCHNDMAKNIVKAVERCGLKVDQLIFAGLASSYSVLTEDERELGVCVVDIGGGTMDIAVYTGGALRHTKVIPYAGNVVTSDIAYAFGTPPSDAEAIKVRHGCALGSIVGKDESVEVPSVGGRPPWSLQRQTLAEVIEPRYTELLNLVNEEILQLQEKLRQQGVKHHLAAGIVLTGGAAQIEGLAACAQRVFHTQVRIGAPLNITGLTDYAQEPYYSTAVGLLHYGKESHLNGEAEVEKRVTASVGSWIKRLNSWLRKEF
modifications: Cy3 or Cy5 at the N-terminus in the labelled form (labelled CLEPTGG peptide conjugated to the 5xGly tag by sortagging); unlabelled protein also used; left off: TwinStrep-SUMO, N-terminal, cleaved | 5x
With B1 the “FtsZ fluorescence intensity compared to the wild-type protein” value (FtsZ) was “increased”.
